{
  "source": "patent US20030036556A1",
  "about": "“Zonisamide use in headache” (priority 2001, published 2003)",
  "key": {"[1]": {"test_system": "refractory migraines and mixed headache disorders", "assay": "Open-label adjunctive zonisamide treatment of refractory headache patients (Example 1)", "assay_type": "in vivo, human", "protocol": "Thirty-three (33) patients from an active headache clinic population were selected for open-label treatment with zonisamide. All patients had refractory migraines and mixed headache disorders, as defined by International Headache Society criteria. All had failed or responded poorly to trials with other anticonvulsants as prophylactic therapy. Most patients (n=27) had failed at least 2 such agents, and 17 had failed 3 agents. […] (Table 1). Zonisamide was initiated as adjunctive therapy: 100 mg of the medication was given in the evening or at bedtime every fourth day for 4 to 5 doses. Consequently, dosing was increased to every third day, every other day, and finally to a daily dose. Dose adjustments of zonisamide were made in increments of 100 mg, every 2 to 3 weeks, with a daily maximum dose of 500 mg, in some cases. Headache severity was rated on a 0 to 10 numeric rating scale (NRS)."}, "[2]": {"test_system": "CDH (chronic daily headache)", "assay": "Zonisamide for prophylaxis of chronic daily headache (Example 2)", "assay_type": "in vivo, human", "conditions": "for Mean number of headache days per month: baseline 22", "protocol": "Sixteen patients who received zonisamide for prophylaxis of CDH (i.e., >15 headache days/month) for at least 3 months were included in this study. […] Zonisamide therapy was initiated at 100 mg/day, and 6 patients were titrated to a zonisamide dosage of 200 mg/day after 2 weeks. Patient headache diaries were used to record information, regarding headache frequency, duration, severity, and disability ratings. Headache severity and disability were rated using a 4-point scale (0=none; 1=mild; 2=moderate; 3=severe). Headache diaries and clinic records were used to determine mean headache duration, frequency, severity, disability for each patient 1 month prior to initiation of zonisamide therapy (baseline) and again 3 months after stable zonisamide dosage was established."}, "[3]": {"test_system": "chronic pain disorders (neuropathic pain), refractory migraine headaches", "assay": "Zonisamide treatment of chronic pain and refractory headache patients (Example 3)", "assay_type": "in vivo, human", "from_the_text": "Twenty-five patients with various chronic pain disorders were selected for treatment with zonisamide. All had neuropathic pain of one kind or another. Fifteen had failed back/neck surgeries with ongoing radicular pain, 4 had complex regional pain syndrome (type 1), 4 had diabetic neuropathy, and 2 had painful sensory neuropathy. All had failed, or responded minimally at best, to trials of numerous other anticonvulsants (neuronal stabilizing agents) for prior treatment of pain symptoms. Eighteen were on such therapy at the time of starting zonisamide therapy. Twenty-two patients with refractory migraine headaches of mixed headache disorders were similarly selected for zonisamide therapy. Most (n=17) had failed 3 or more other neuronal stabilizing agents as prophylaxis therapy for their headaches. […] Zonisamide was begun at 100 mg every third day for 3 to 5 doses, with an increase to every-other-day dosing and then to a daily dose. Dosage changes were made every 2 weeks at a minimum. Headache and pain spores were rated on a 0 to 10 numeric rating scale by each patient."}, "[4]": {"test_system": "chronic pain disorders, all with neuropathic pain", "assay": "Zonisamide treatment of chronic pain patients (Example 4)", "assay_type": "in vivo, human", "protocol": "This study included 30 patients with various chronic pain disorders, all with neuropathic pain (Table 1). All patients had previously failed or responded minimally to numerous other anticonvulsants (neuronal stabilizing agents) for treatment of painful symptoms. Twenty-three patients were on such therapy at the time zonisamide therapy was initiated. Zonisamide therapy was initiated at 100 mg every fourth day for 3 to 6 doses, with an increase to every third day, then to every other day, and finally to a daily dose. Adjustments in the dose of zonisamide were made no more than every 2 weeks. Headache and pain scores were rated on a 0 to 10 numeric rating scale (NRS) by each patient."}, "[5]": {"test_system": "generalized seizures in the kindled rat model", "conditions": "cited from earlier work"}, "cortical focal seizures": {"test_system": "cortical focal seizures", "conditions": "electrical stimulation of the visual cortex in cats; cited from earlier work"}, "[6]": {"test_system": "interictal spikes and secondarily generalized seizures", "conditions": "cortical application of tungstic acid gel in rats; cited from earlier work"}, "[7]": {"test_system": "interictal spikes and secondarily generalized seizures", "conditions": "cortical freezing in cats; cited from earlier work"}, "sodium channels": {"test_system": "sodium channels", "conditions": "in vitro, cited from earlier work"}, "T-type Ca2+ currents": {"test_system": "T-type Ca2+ currents", "conditions": "in vitro, cited from earlier work"}, "[8]": {"test_system": "GABA/benzodiazepine receptor ionophore complex", "conditions": "in vitro, cited from earlier work"}, "[9]": {"test_system": "cultured mouse spinal cord neurons", "conditions": "zonisamide 10-30 μg/mL; cited from earlier work"}, "rat hippocampal slices": {"test_system": "rat hippocampal slices", "conditions": "zonisamide 10-30 μg/mL; cited from earlier work"}, "[10]": {"test_system": "dopaminergic and serotonergic neurotransmission", "conditions": "in vivo microdialysis; cited from earlier work"}},
  "note": "Like-named read-outs stand apart in the source and are kept apart here.",
  "data": [
    {"compound": "NS(=O)(=O)Cc1noc2ccccc12", "note": "[zonisamide, 1,2-benzisoxazole-3-methanesulfonamide]", "values": [
      {"measurement": "number of patients (n) with discontinuation due to side effects", "setting": "[1]; 33 patients", "value": 4},
      {"measurement": "number of patients (n) with no response", "setting": "[1]; 33 patients", "value": 3},
      {"measurement": "number of patients (n) with 25% to 50% decrease in headache frequency", "setting": "[1]; after at least 2 months of zonisamide therapy, 33 patients", "value": 8},
      {"measurement": "number of patients (n) with ≧65% decrease in headache frequency", "setting": "[1]; after at least 2 months of zonisamide therapy, 33 patients, 10 still in titration", "value": 6},
      {"measurement": "patients who did not respond", "setting": "[1]; of 33 patients", "value": "9 % of total"},
      {"measurement": "patients who dropped the medication due to side effects", "setting": "[1]; of 33 patients", "value": "12 % of total"},
      {"measurement": "Mean disability rating", "setting": "[2]; 4-point scale (0=none to 3=severe), after 3 months, baseline 1.48", "value": 1.12},
      {"measurement": "Mean headache severity rating", "setting": "[2]; 4-point scale (0=none to 3=severe), after 3 months, baseline 1.84", "value": 1.41},
      {"measurement": "Mean headache duration", "setting": "[2]; after 3 months at stable dosage, mean dosage 137.5 mg/d, baseline 8.46", "value": 6.41, "unit": "h"},
      {"measurement": "Mean number of headache days per month", "setting": "[2]; after 3 months at stable dosage, mean dosage 137.5 mg/d, n=16", "value": 5, "unit": "days/month"},
      {"measurement": "Mean number of headache days per month", "setting": "[2]; after 3 months at stable dosage, mean dosage 137.5 mg/d, n=16, listed as Zonismide", "value": 14.5, "unit": "days/month"},
      {"measurement": "decrease of mean disability rating", "setting": "[2]; after 3 months vs baseline", "value": 24, "unit": "%"},
      {"measurement": "decrease of mean headache rating", "setting": "[2]; after 3 months vs baseline", "value": 23, "unit": "%"},
      {"measurement": "reduction of mean headache duration", "setting": "[2]; after 3 months vs baseline", "value": 24, "unit": "%"},
      {"measurement": "reduction of total headache time", "setting": "[2]; after 3 months vs baseline", "value": 50, "unit": "%"},
      {"measurement": "reduction of mean number of headache days/month", "setting": "[2]; after 3 months vs baseline, mean dosage 137.5 mg/d", "value": 34, "unit": "%"},
      {"measurement": "mean weight loss", "setting": "[2]; in the 9 patients with weight loss", "value": 11, "unit": "lb."},
      {"measurement": "adverse events: number of patients with mild diarrhea", "setting": "[2]; n=16", "value": 2, "unit": "patients"},
      {"measurement": "adverse events: number of patients with weight loss", "setting": "[2]; n=16", "value": 9, "unit": "patients"},
      {"measurement": "tolerability", "setting": "[2]; n=16, 3 months", "value": "well tolerated"},
      {"measurement": "Total headache time", "setting": "[2]; on zonisamide after 3 months, baseline 186", "value": 93, "unit": "hours/month"},
      {"measurement": "number of patients with pain reductions averaging 60% or better", "setting": "[3]; 0 to 10 numeric rating scale", "value": 6, "unit": "patients"},
      {"measurement": "number of patients with reductions in pain of 30% to 50%", "setting": "[3]; 0 to 10 numeric rating scale", "value": "Six"},
      {"measurement": "number of patients with slight reductions (less than 25%)", "setting": "[3]; 0 to 10 numeric rating scale", "value": "Four"},
      {"measurement": "number of patients with no pain relief and/or side effects", "setting": "[3]; human, in vivo", "value": 7, "unit": "patients"},
      {"measurement": "number of patients with no pain relief and/or reported side effects", "setting": "[4]; 30 patients", "value": 5, "unit": "patients"},
      {"measurement": "number of patients with slight (less than 25%) pain reductions", "setting": "[4]; 30 patients", "value": "Five"},
      {"measurement": "number of patients with pain reductions of 60% or greater", "setting": "[4]; after at least 2 months of zonisamide therapy, 30 patients", "value": 10, "unit": "patients"},
      {"measurement": "number of patients with 30% to 50% reductions in pain", "setting": "[4]; after at least 2 months, 30 patients", "value": 7, "unit": "patients"},
      {"measurement": "share of patients with 30% to 50% reductions in pain", "setting": "[4]; of 30 patients", "value": 23, "unit": "%"},
      {"measurement": "share of patients with no pain relief and/or reported side effects", "setting": "[4]; of 30 patients", "value": 17, "unit": "%"},
      {"measurement": "share of patients with pain reductions of 60% or greater", "setting": "[4]; of 30 patients", "value": 30, "unit": "%"},
      {"measurement": "share of patients with slight (less than 25%) pain reductions", "setting": "[4]; of 30 patients", "value": 17, "unit": "%"},
      {"measurement": "effect on threshold for generalized seizures", "setting": "[5]", "value": "anticonvulsant activity"},
      {"measurement": "duration of cortical focal seizures", "setting": "cortical focal seizures", "value": "reduced the duration"},
      {"measurement": "interictal spikes and secondarily generalized seizures", "setting": "[6]", "value": "suppressed"},
      {"measurement": "interictal spikes and secondarily generalized seizures", "setting": "[7]", "value": "suppressed"},
      {"measurement": "effect on sodium channels", "setting": "sodium channels", "value": "blocks"},
      {"measurement": "effect on sodium channels", "setting": "sodium channels; listed as Zonisamide", "value": "inhibits"},
      {"measurement": "effect on voltage-dependent, transient inward currents (T-type Ca2+ currents)", "setting": "T-type Ca2+ currents", "value": "reduces"},
      {"measurement": "effect on voltage-dependent, transient inward currents (T-type Ca2+ currents)", "setting": "T-type Ca2+ currents; listed as Zonisamide", "value": "blocks"},
      {"measurement": "binding to the GABA/benzodiazepine receptor ionophore complex", "setting": "[8]; allosteric fashion", "value": "binds"},
      {"measurement": "changes in chloride flux", "setting": "[8]", "value": "does not produce changes"},
      {"measurement": "post-synaptic GABA or glutamate responses", "setting": "[9]", "value": "without affecting"},
      {"measurement": "synaptically-driven electrical activity", "setting": "[9]", "value": "suppresses"},
      {"measurement": "neuronal or glial uptake of [3H]-GABA", "setting": "rat hippocampal slices", "value": "without affecting"},
      {"measurement": "dopaminergic and serotonergic neurotransmission", "setting": "[10]", "value": "facilitates"}
    ]}
  ]
}
